Values of other authors, collected in US9301985B2, “Therapeutic agent for dementia” (Kibun Foods Inc., priority 2013, dated 2016).

How the values were obtained:
[1] = test system: cerebrovascular dementia model and Alzheimer's disease model; settings: rat; cerebrovascular dementia model (vessel artificially clogged) and Alzheimer's disease model
[2] = test system: nerve growth factor (NGF); settings: erinacine E derived from Hericium erinaceum
k-opioid receptor = k-opioid receptor (Homo sapiens, UniProt P41145); settings: erinacine E derived from Hericium ramosum
Chain of k-opioid receptor (P41145 whole entry): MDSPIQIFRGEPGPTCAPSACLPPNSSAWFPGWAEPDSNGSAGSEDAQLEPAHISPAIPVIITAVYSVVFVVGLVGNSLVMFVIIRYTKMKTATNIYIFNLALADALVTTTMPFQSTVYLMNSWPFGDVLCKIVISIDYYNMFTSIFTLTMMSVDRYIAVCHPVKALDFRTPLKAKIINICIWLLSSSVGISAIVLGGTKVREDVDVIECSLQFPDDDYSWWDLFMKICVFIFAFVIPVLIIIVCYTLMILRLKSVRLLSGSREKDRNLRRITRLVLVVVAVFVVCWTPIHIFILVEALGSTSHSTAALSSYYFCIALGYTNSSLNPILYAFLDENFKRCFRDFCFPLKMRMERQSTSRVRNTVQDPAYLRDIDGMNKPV

| activity at k-opioid receptor (k-opioid receptor) | Structure (SMILES) | memory retention and learning ability [1] | nerve growth factor (NGF) production [2] |
| --- | --- | --- | --- |
| – | CC(C)C1=C2C3=CC=C(C=O)C[C@H](O[C@@H]4OC[C@@H](O)[C@H](O)[C@H]4O)[C@]3(C)CC[C@@]2(C)CC1 [erinacine A] | apparent improvement | – |
| agonist | CC(C)C1=C2C3CC=C4C(O)C5(O)COC6OC(C4C6(O)C5O)C3(C)CCC2(C)CC1 (stereo not shown) [erinacine E] | – | action to accelerate |
| – | CCCCCCCCCCCCCCCC(=O)OCc1cc(OC)c(C/C=C(\C)CC(=O)C=C(C)C)c(O)c1C=O [hericenone C] | apparent improvement | – |
